The values below come from publication PMC12794078, “Real-Time Binding Kinetics of Small Molecules to CA IX in Live Suspension Cells Using SPR Microscopy” (ACS Medicinal Chemistry Letters, 2025).

The target in test [1] is CA IX on live Ramos B cells (Homo sapiens, UniProt Q16790). In words: SPRM kinetic titration of small molecules on live Ramos B suspension cells (1:1 kinetic model, 600 ROIs).
Procedure: All cells were maintained in an incubator at 37 °C with 5% CO2 before seeding. For every experiment, cell viability was determined with Trypan blue using a TC20 cell counter (BioRad). PLL precoated SPRM sensor chips were prepared according to manufacturer’s protocol (Gibco, cat. # A3890401). 5K Ramos B cells at 99% viability were gently seeded onto PLL precoated SPRM sensor chips containing 600 μL of Mccoy medium 5A supplemented with 10% FBS and then incubated at 37 °C with 5% CO2. After 72 h of incubation, cells were washed with live cell imaging buffer (A59688DJ) twice and immediately followed by SPRM analysis. […] All experiments were performed with a commercially available Ramos B cell line.
SPRM is highly sensitive to ligand binding events on the cell membrane, which induces dielectric changes that are recorded as sensorgrams. Moreover, its high-resolution diffraction limited optics produces sensorgrams of subcellular response regions, enabling detailed evaluation of binding heterogeneity.
High resolution SPRM measurements were generated by uniformly segmenting the sensing area (600 μm × 450 μm area) into a virtual grid of 600 regions of interest (ROI). For every ROI, a 1:1 kinetic binding interaction model was applied. Bare area ROIs were subtracted as references from the cell area ROIs. The SPRM kinetic analysis results of all ROIs were aggregated for statistical analysis. ImageSPR software (Biosensing Instrument Inc., Tempe AZ) was used to generate the sensorgrams, fitting, and statistical analysis of binding interactions. ROIs that detected a response which fitted well to the kinetic interaction model were collectively plotted onto an isoaffinity scatter plot for statistical analysis of the binding heterogeneity (Figure ). Histograms extracted from the isoaffinity scatter plot were fit with Gaussian distributions to obtain mean values and standard deviations for the association rate (k a), dissociation rate (k d), and equilibrium dissociation constant (KD). Subsequently, those ROIs that observe binding responses were highlighted in red and overlaid onto the SPRM image to more clearly evaluate the extent of cell-specific and nonspecific binding.
For test [2], the target named is CA II. The following applies: ex vitro purified CA II, published values; reference number not given; read-out: Reported values CA II; cited from earlier work.
[3] abbreviates: association rate, membrane-bound CA IX, live Ramos B cells.
Where [4] appears, read: dissociation rate, membrane-bound CA IX, live Ramos B cells.

Molecules are shown by their SMILES. Where two headings read alike, the source gives them in different places.

Take `NS(=O)(=O)c1cc(C(=O)O)c(NCc2ccco2)cc1Cl` [Furosemide]: in test [1] (setting [3]), the “k a, SPRM results for CA IX” value is recorded as 1.10 × 10^03 M^–1 s^–1. Besides, the “kd, SPRM results for CA IX” value in test [1] (setting [4]) is listed as 1.16 × 10^–03 s^–1.

For the molecule `CN(C)c1cccc2c(S(N)(=O)=O)cccc12` [Dansylamide], the Kd is 586 nM in test [1] (Batch 1, live Ramos B cells, experiment/batch 1); 542 nM in test [1] (Batch 2, live Ramos B cells, experiment/batch 2); 534 nM in test [1] (Batch 3, live Ramos B cells, experiment/batch 3); 586 nM in test [1] (SPRM results for CA IX, membrane-bound CA IX, live Ramos B cells, Gaussian mean over ROIs); 760 nM in test [2]. Moreover, the “k a, SPRM results for CA IX” value in test [1] (setting [3]) is recorded as 2.53 × 10^03 M^–1 s^–1. The “kd, SPRM results for CA IX” value in test [1] (setting [4]) is 2.34 × 10^–03 s^–1.

Take `NS(=O)(=O)c1ccc(C(=O)O)cc1` [4-CBS, 4-Carboxybenzenesulfonamide]: the Kd in test [1] (Batch 1) amounted to 870 nM; in test [1] (Batch 2) it was 1000 nM; in test [1] (Batch 3), 780 nM; in test [1] (SPRM results for CA IX) it was 870 nM.

For the molecule `Nc1ccc(S(N)(=O)=O)cc1` [Sulfanilamide], in test [1], the “k a, SPRM results for CA IX” value is reported as 4.40 × 10^03 M^–1 s^–1 and the “kd, SPRM results for CA IX” value is reported as 1.39 × 10^–03 s^–1.
